According to DBAASP:
≈ marks a conversion by molar mass, not a printed value.

Experiments:
Assay in all cases: ≥ marks a high value that may be exact or a test limit, other limits are often not marked, values filed in µg/mL are converted to µM
Bacillus subtilis 168 = test system: Bacillus subtilis 168
[1] = test system: Staphylococcus aureus USA 300
[2] = test system: Pseudomonas aeruginosa PAO1
Escherichia coli K-12 = test system: Escherichia coli K-12
[3] = test system: Staphylococcus epidermidis ATCC 12228
[4] = test system: Escherichia coli ATCC 25922
[5] = test system: Enterococcus faecalis ATCC 29212
[6] = test system: Pseudomonas aeruginosa ATCC 27853
[7] = test system: Klebsiella pneumoniae ATCC 700603
[8] = test system: Staphylococcus aureus ATCC 25923
[9] = test system: Acinetobacter baumannii ATCC 19606
[10] = test system: Bacillus subtilis ATCC 23857
[11] = test system: Salmonella enterica subsp. enterica serovar Typhimurium C77-31
[12] = test system: Staphylococcus aureus ATCC 29213
Escherichia coli UB1005 = test system: Escherichia coli UB1005
[13] = test system: Pseudomonas aeruginosa ATCC 9027
[14] = test system: Staphylococcus epidermidis
Candida albicans = test system: Candida albicans
[15] = test system: Pseudomonas aeruginosa H103
[16] = test system: Salmonella enterica serovar Typhimurium

Row | SMILES | MIC [3] [µM] | MIC [4] [µM] | MIC [7] [µM] | MIC [8] [µM] | MIC [10] [µM] | MIC (Escherichia coli UB1005) [µM] | also measured
1 | CC(C)C[C@H](NC(=O)[C@H](CC(C)C)NC(=O)[C@H](CCCCN)NC(=O)[C@@H]1CCCN1C(=O)[C@H](CC(C)C)NC(=O)[C@H](CC(C)C)NC(=O)[C@H](CCCCN)NC(=O)[C@H](CC(C)C)NC(=O)[C@H](CC(C)C)NC(=O)[C@H](CO)NC(=O)CNC(=O)[C@H](Cc1ccccc1)NC(=O)[C@@H](N)Cc1ccccc1)C(N)=O [FFGSLLKLLPKLL] | – | – | – | – | – | – | MIC (Bacillus subtilis 168): 3.12 µM (≈ 4.64 µg/mL); MIC [1]: 1.1 µM (≈ 1.64 µg/mL); MIC [2]: 70.7 µM (≈ 105 µg/mL); MIC (Escherichia coli K-12): 12.5 µM (≈ 18.6 µg/mL)
2 | CC(C)C[C@H](NC(=O)[C@H](C)NC(=O)[C@@H](NC(=O)[C@H](CCCCN)NC(=O)[C@H](C)NC(=O)[C@H](CCCN=C(N)N)NC(=O)[C@H](CCCCN)NC(=O)[C@H](C)NC(=O)[C@H](C)NC(=O)CN)[C@@H](C)O)C(N)=O [GAAKRAKTAL] | > 512 | > 512 | > 512 | > 512 | ≥ 512 | – | MIC [5]: > 512 µM; MIC [6]: > 512 µM; MIC [9]: > 512 µM
3 | CC(C)C[C@H](NC(=O)[C@H](Cc1ccccc1)NC(=O)CN)C(=O)N[C@@H](CCCCN)C(=O)N[C@@H](CCCN=C(N)N)C(=O)N[C@@H](Cc1ccccc1)C(=O)N[C@@H](CCCCN)C(=O)N[C@H](C(=O)N[C@@H](CC(C)C)C(=O)N[C@@H](Cc1ccccc1)C(N)=O)[C@@H](C)O [GFLKRFKTLF] | 8 (≈ 10 µg/mL) | 64 (≈ 80.4 µg/mL) | 128 (≈ 161 µg/mL) | 64 (≈ 80.4 µg/mL) | ≥ 64 | – | MIC [5]: 128 µM (≈ 161 µg/mL); MIC [6]: 8 µM (≈ 10 µg/mL); MIC [9]: 128 µM (≈ 161 µg/mL)
4 | CC[C@H](C)[C@H](NC(=O)CN)C(=O)N[C@H](C(=O)N[C@@H](C)C(=O)NCC(=O)N[C@H](C(=O)N[C@H](C(=O)N[C@@H](CCCCN)C(=O)N[C@H](C(=O)N[C@H](C(=O)N[C@@H](CCCCN)C(=O)N[C@@H](C)C(N)=O)[C@@H](C)CC)[C@@H](C)CC)[C@@H](C)CC)[C@@H](C)CC)[C@@H](C)CC [GIIAGIIKIIKA] | – | > 128 | – | – | 16 (≈ 19.3 µg/mL) | – | –
5 | CC(C)C[C@H](NC(=O)[C@H](CC(C)C)NC(=O)[C@@H](NC(=O)[C@H](CCCCN)NC(=O)[C@H](Cc1c[nH]c2ccccc12)NC(=O)[C@H](CCCN=C(N)N)NC(=O)[C@H](CCCCN)NC(=O)[C@H](CC(C)C)NC(=O)[C@H](CC(C)C)NC(=O)CN)[C@@H](C)O)C(N)=O [GLLKRWKTLL] | 16 (≈ 19.6 µg/mL) | 64 (≈ 78.5 µg/mL) | 64 (≈ 78.5 µg/mL) | 128 (≈ 157 µg/mL) | ≥ 128 | – | MIC [5]: 256 µM (≈ 314 µg/mL); MIC [6]: 4 µM (≈ 4.91 µg/mL); MIC [9]: 256 µM (≈ 314 µg/mL)
6 | CC[C@H](C)[C@H](NC(=O)[C@H](CCCCN)NC(=O)[C@H](CCCCN)NC(=O)[C@H](CC(C)C)NC(=O)[C@@H](NC(=O)[C@H](CCCCN)NC(=O)CNC(=O)[C@@H](NC(=O)[C@H](CCCCN)NC(=O)[C@H](CCCCN)NC(=O)[C@H](CC(C)C)NC(=O)[C@H](CCCN=C(N)N)NC(=O)[C@H](CCCCN)NC(=O)[C@H](CCCN=C(N)N)NC(=O)[C@@H](NC(=O)[C@H](CCCCN)NC(=O)[C@H](CCCCN)NC(=O)[C@H](CCCN=C(N)N)NC(=O)[C@H](CC(C)C)NC(=O)[C@H](CCCN=C(N)N)NC(=O)[C@H](CCCN=C(N)N)NC(=O)[C@H](Cc1ccccc1)NC(=O)[C@H](CCCN=C(N)N)NC(=O)CN)[C@@H](C)O)[C@@H](C)CC)C(C)C)C(N)=O [GRFRRLRKKTRKRLKKIGKVLKKI] | 32 (≈ 96.2 µg/mL) | 32 (≈ 96.2 µg/mL) | – | 64 (≈ 192 µg/mL) | – | 16 (≈ 48.1 µg/mL) | MIC [11]: ≥ 128 µM; MIC [12]: 32 µM (≈ 96.2 µg/mL)
7 | CC[C@H](C)[C@H](N)C(=O)N[C@@H](Cc1c[nH]c2ccccc12)C(=O)N[C@@H](CC(C)C)C(=O)N[C@H](C(=O)N[C@@H](C)C(=O)N[C@@H](CC(C)C)C(=O)N[C@@H](CCCCN)C(=O)N[C@@H](Cc1ccccc1)C(=O)N[C@@H](CC(C)C)C(=O)NCC(=O)N[C@@H](CCCCN)C(=O)N[C@@H](Cc1cnc[nH]1)C(=O)N[C@@H](C)C(=O)N[C@@H](C)C(=O)N[C@@H](CCCCN)C(=O)N[C@@H](Cc1cnc[nH]1)C(=O)N[C@@H](CC(C)C)C(=O)N[C@@H](C)C(=O)N[C@@H](CCCCN)C(=O)N[C@@H](CCC(N)=O)C(=O)N[C@@H](CCC(N)=O)C(=O)N[C@@H](CC(C)C)C(=O)N[C@@H](CO)C(=O)N[C@@H](CCCCN)C(=O)N[C@@H](CC(C)C)C(=O)O)[C@@H](C)O [IWLTALKFLGKHAAKHLAKQQLSKL] | – | – | – | – | – | – | MIC (Bacillus subtilis 168): 6.25 µM (≈ 17.8 µg/mL); MIC [1]: 3.1 µM (≈ 8.82 µg/mL); MIC [2]: 25 µM (≈ 71.1 µg/mL); MIC (Escherichia coli K-12): 25 µM (≈ 71.1 µg/mL)
8 | CC(C)C[C@H](NC(=O)[C@H](CC(C)C)NC(=O)[C@H](CCCCN)NC(=O)[C@@H]1CCCN1C(=O)[C@H](CC(C)C)NC(=O)[C@H](CC(C)C)NC(=O)[C@H](CCCCN)NC(=O)[C@H](CC(C)C)NC(=O)[C@H](CC(C)C)NC(=O)[C@H](CO)NC(=O)CNC(=O)[C@H](CC(C)C)NC(=O)[C@@H](N)CC(C)C)C(N)=O [LLGSLLKLLPKLL] | – | – | – | – | – | – | MIC (Bacillus subtilis 168): 3.12 µM (≈ 4.43 µg/mL); MIC [1]: 1.1 µM (≈ 1.57 µg/mL); MIC [2]: > 100 µM; MIC (Escherichia coli K-12): 12.5 µM (≈ 17.7 µg/mL)
9 | CC[C@H](C)[C@H](NC(=O)[C@H](CCCCN)NC(=O)[C@H](C)NC(=O)[C@H](C)NC(=O)[C@@H](NC(=O)[C@H](C)NC(=O)[C@H](CC(C)C)NC(=O)[C@H](CC(C)C)NC(=O)[C@H](C)NC(=O)[C@H](CCCCN)NC(=O)[C@H](CC(C)C)NC(=O)[C@H](CC(N)=O)NC(=O)[C@@H](N)CC(C)C)C(C)C)C(=O)N[C@@H](CC(C)C)C(N)=O [LNLKALLAVAAKIL] | – | 8 (≈ 11.6 µg/mL) | 32 (≈ 46.4 µg/mL) | 4 (≈ 5.8 µg/mL) | 16 (≈ 23.2 µg/mL) | – | MIC [13]: 32 µM (≈ 46.4 µg/mL)

Continued, in another order:

Row | MIC [3] [µM] | MIC [4] [µM] | MIC [7] [µM] | MIC [8] [µM] | MIC [10] [µM] | MIC (Escherichia coli UB1005) [µM] | SMILES | also measured
10 | – | 4 (≈ 6.26 µg/mL) | 4 (≈ 6.26 µg/mL) | 8 (≈ 12.5 µg/mL) | 2 (≈ 3.13 µg/mL) | – | CC[C@H](C)[C@H](NC(=O)[C@H](CCCCN)NC(=O)[C@H](CCCCN)NC(=O)[C@H](C)NC(=O)[C@@H](NC(=O)[C@H](C)NC(=O)[C@H](CC(C)C)NC(=O)[C@H](CC(C)C)NC(=O)[C@H](CCCCN)NC(=O)[C@H](CCCCN)NC(=O)[C@H](CC(C)C)NC(=O)[C@H](CC(N)=O)NC(=O)[C@@H](N)CC(C)C)C(C)C)C(=O)N[C@@H](CC(C)C)C(N)=O [LNLKKLLAVAKKIL] | MIC [13]: 4 µM (≈ 6.26 µg/mL)
11 | – | – | – | 16.2 (≈ 23 µg/mL) | – | 7.74 (≈ 11 µg/mL) | CC[C@H](C)[C@H](NC(=O)[C@@H](NC(=O)[C@H](C)NC(=O)[C@@H](NC(=O)[C@H](C)NC(=O)[C@@H](N)CCCN=C(N)N)C(C)C)C(C)C)C(=O)N[C@H](C(=O)N[C@@H](CCCN=C(N)N)C(=O)N[C@@H](CC(C)C)C(=O)N[C@@H](CCCN=C(N)N)C(=O)N[C@@H](CCCN=C(N)N)C(=O)N[C@H](C(N)=O)C(C)C)[C@@H](C)CC [RAVAVIIRLRRV] | MIC [14]: 4.22 µM (≈ 6 µg/mL); MIC (Candida albicans): 4.22 µM (≈ 6 µg/mL); MIC [15]: 16.2 µM (≈ 23 µg/mL); MIC [16]: 7.74 µM (≈ 11 µg/mL)
12 | > 128 | > 128 | – | – | – | ≥ 128 | CC[C@H](C)[C@H](NC(=O)[C@H](CCCCN)NC(=O)[C@H](CCCCN)NC(=O)[C@H](CC(C)C)NC(=O)[C@H](CCCN=C(N)N)NC(=O)[C@H](CC(=O)O)NC(=O)[C@H](CCCN=C(N)N)NC(=O)[C@@H](NC(=O)[C@H](CCCCN)NC(=O)[C@H](CC(=O)O)NC(=O)[C@H](CCCN=C(N)N)NC(=O)[C@H](CC(C)C)NC(=O)[C@H](CCCN=C(N)N)NC(=O)[C@H](CCCN=C(N)N)NC(=O)[C@H](Cc1ccccc1)NC(=O)[C@@H](N)CCCN=C(N)N)[C@@H](C)O)C(N)=O [RFRRLRDKTRDRLKKI] | MIC [11]: ≥ 128 µM; MIC [5]: > 128 µM; MIC [12]: > 128 µM
13 | 8 (≈ 14 µg/mL) | 4 (≈ 7.02 µg/mL) | – | 16 (≈ 28.1 µg/mL) | – | 4 (≈ 7.02 µg/mL) | CC(C)C[C@H](NC(=O)[C@H](CCCN=C(N)N)NC(=O)[C@H](CCCCN)NC(=O)[C@H](Cc1c[nH]c2ccccc12)NC(=O)[C@@H](NC(=O)[C@H](CCCCN)NC(=O)[C@H](CCCCN)NC(=O)[C@H](Cc1c[nH]c2ccccc12)NC(=O)[C@H](CC(C)C)NC(=O)[C@H](CCCN=C(N)N)NC(=O)[C@@H](N)CCCN=C(N)N)[C@@H](C)O)C(=O)N[C@@H](Cc1c[nH]c2ccccc12)C(N)=O [RRLWKKTWKRLW] | MIC [11]: 8 µM (≈ 14 µg/mL); MIC [12]: 8 µM (≈ 14 µg/mL)
14 | – | – | – | 176 (≈ 250 µg/mL) | – | ≥ 95.7 | CC[C@H](C)[C@H](NC(=O)[C@H](CCCN=C(N)N)NC(=O)[C@H](CCCN=C(N)N)NC(=O)[C@H](CCCN=C(N)N)NC(=O)[C@H](CCCN=C(N)N)NC(=O)[C@@H](NC(=O)[C@@H](N)C(C)C)[C@@H](C)CC)C(=O)N[C@@H](CC(C)C)C(=O)N[C@@H](C)C(=O)N[C@@H](C)C(=O)N[C@H](C(=O)N[C@H](C(N)=O)C(C)C)C(C)C [VIRRRRILAAVV] | MIC [14]: ≥ 95.7 µM; MIC (Candida albicans): 95.7 µM (≈ 136 µg/mL); MIC [15]: ≥ 176 µM; MIC [16]: ≥ 95.7 µM
